Patent publication US20090156511A1, “Agent for Enhancing Antiseptic Power” (Kao Corporation, priority 2005, published 2009)

Tested on: Staphylococcus aureus IF013276, Escherichia coli IF03972, Pseudomonas aeruginosa IF013275
Test: Antibacterial test (inoculated composition held at 30° C., colony counting method)
Type: cell-based
Experimental: The following bacteria were suspended in a physiological saline such that the number of bacteria or spores was 10^8 CFU/mL. to prepare a bacteria-containing solution. Then, 0.005 mL of the thus obtained bacteria-containing solution was inoculated into 5 mL of the composition to be tested such that the bacteria concentration therein was […]. The thus inoculated composition was held at 30° C. for a predetermined period of time to measure the change in number of bacteria with time by the calculation using a colony counting method. The antibacterial property of the composition was evaluated according to the following four ratings.
Staphylococcus aureus IF013276
Pseudomonas aeruginosa IF013275
⊚: Sufficiently high antibacterial property (number of bacteria was decreased by […] or more)
◯: High antibacterial property (number of bacteria was decreased by […])
Δ: Low antibacterial property (number of bacteria was decreased by 10^2 to 10^1)

**Q.** With α,β-n-dodecyl galactoside as the substance, how does the “antibacterial property by itself” value (0.1% by mass in water without antiseptic agent, Table 1, after 9 days) read?
**A.** Its value is “no antibacterial property”.

**Q.** How did the “antibacterial property by itself” value (0.1% by mass without antiseptic agent, with polyoxyethylene (60) hydrogenated castor oil, Table 2, after 7 days) turn out when α,β-2-hexyldecyl galactoside was run?
**A.** Its value is “no antibacterial property”.
